By melting point is commonly meant the temperature of the solid-liquid transition. The compound `CNC(=O)[C@@H]1CCC[C@@H]1Nc1nc(Nc2ccc3c(c2)CCN(CCOC)CC3)ncc1Cl` (relative stereo) gave a melting point of 176 °C.

`O=[N+]([O-])c1cn(-c2cccnc2)nc1Cl` displayed a melting point of 139 to 142 °C. For `COc1ccc(Nc2nc(Cl)nc(NCC3CCCCC3)n2)cc1F` the value was 156 °C. Consider `CC(C)C(NC(=O)c1ccc(C(=O)NCC(=O)OCc2ccccc2)cc1)C(=O)N(CC(=O)NC(C(=O)C(F)(F)F)C(C)C)C1Cc2ccccc2C1` (mixture of isomers), for which the melting point was in the range of 64 to 66 °C. As for `O=C1C=c2c(c3c4ccccc4[nH]c3c3[nH]c4ccccc4c23)=N1`, the melting point is over 320 °C.

`CCOC(=O)C1CN(C(=O)c2cc(OC)c(OC)c(OC)c2)CCN1C(=O)C1=Cc2cc(OC)c(OC)cc2CCC1` (stereo not drawn) had a melting point of 108 to 110 °C. `Cn1cc(C2=C(c3ccncc3)C(=O)OC2=O)c2ccccc21` gave a melting point of 217 to 219 °C.

`COc1cccc(CNC(=O)[C@@H]2CCCN(c3cccc4c3C(=O)N(Cc3ccncc3)C4=O)C2)c1OC`: the melting point fell in the range of 199 to 200 °C. In turn, `CC(=O)c1cc(Br)c(OCCCN2CCC(c3noc4cc(F)ccc34)CC2)c(Br)c1` came in with a melting point of 102 to 103 °C. Take `Nc1nc2ccccc2c(=O)[nH]1`: the melting point is over 300 °C. Turning to `CNC(=S)N(C)Cc1ccc(Br)nc1`, the melting point was in the range of 107 to 108 °C. For `CC[C@@]12C[C@H](O)[C@](O)(c3ccccc3)C[C@H]1CCc1cc(O)ccc12` the value was 191 to 192 °C; for `Nc1ccc(C2Sc3ccccc3C=C2c2ccc3c(c2)NC(=O)CO3)cc1` (stereo not drawn), 186 to 189 °C.

In turn, `Clc1ccc(/C=C/c2ccc[nH]2)cc1` came in with a melting point of 172 °C. `CC(=O)C(=Cc1ccc([N+](=O)[O-])o1)C(C)=O` had a melting point of 117 to 120 °C.

The compound `O=Cc1c(-c2ccc(Cl)cc2)nsc1-c1ccccc1` gave a melting point of 148 to 149 °C. As to `OCc1ccc(-c2ccc3nc(-c4ccccc4)cn3c2)cc1`, the melting point lay in the range of 238 to 240 °C. Regarding `COc1ccc(C2CC(=O)N(c3c(C)c(C)c4c(c3C)[C@@H](c3ccc(C)cc3)C(C)(C)O4)C(=O)C2)cc1`, the melting point fell in the range of 207 to 209 °C. Compound `CN1CCC(=C2c3ccccc3-c3cocc3-c3ccccc32)CC1` showed a melting point of 147 to 148 °C.

For `Nc1cccc(-c2ccc3nncn3n2)c1`, the melting point stood at 225 °C. Compound `COc1cc2c(cc1OC)C(=O)C(CC=O)C2` (racemic) registered a melting point of 122 °C. `OC1CSC(Oc2cncc(-c3ccc(N4CCCCC4)cc3)c2)C(O)C1O` (stereo not drawn): the melting point came to 196 °C. Compound `CCCNC(=O)c1ccc(Nc2nc(OCC3CCCCC3)c3nc[nH]c3n2)cc1` displayed a melting point of 226 to 228 °C. With `O=C(c1ccc(O)cc1)c1c(-c2ccccc2)oc2ccc([N+](=O)[O-])cc12`, the melting point was found to be 207 °C.

In the case of `CCCCCCCCCCCCCCCCC1CC(=O)N(NC(=O)CCc2cc(C(C)(C)C)c(O)c(C(C)(C)C)c2)C1=O` (stereo not drawn), the melting point amounted to 85 °C.

On to `O=C(c1cccnc1)c1cc2cc(Br)ccc2o1`, for which the melting point is 144 to 145 °C. As for `CNCc1cc2cc(Nc3nc(N)n(C(=O)c4cccc(C)c4)n3)ccc2o1`, the melting point was 128 to 131 °C. For `O=C(O)C1CN(Cc2ccccc2)CCN1Cc1ccccc1` (stereo not drawn), the melting point lay within 184 to 185 °C.

Compound `O=C1CCOc2ccc(OCc3ccccc3)cc21` registered a melting point of 107 to 108 °C. In turn, `O=C1c2ccccc2C(=O)N1CC1Cc2ccc3c(c2O1)CCC3` (stereo not drawn) showed a melting point of 131 to 135 °C. For the compound `CC(C)(C)c1ccc(CBr)cc1NC(=O)CC1c2ccccc2Oc2ccccc21`, the melting point lay within 229 to 231 °C. `CC(C)(C)c1cc(OCc2ccccc2C#N)cc(C(C)(C)C)c1O` came in with a melting point of 117 to 119 °C. `COc1cc(C2C3=C(COC3=O)Nc3ccc4cc[nH]c4c32)ccc1F` (stereo not drawn) registered a melting point of 170 to 172 °C. As for `COc1ccc(C2=C(c3ccc(S(C)(=O)=O)cc3)CCC2)cc1Cl`, the melting point is 118 to 120 °C. Turning to `COC(=O)c1ccc(-c2nn(Cc3ccccc3)c3ccccc23)o1`, the melting point was in the range of 137 to 138 °C. On to `O=C(O)C1(CSc2ccc3oc(-c4ccncc4)cc3c2)CCOCC1`, for which the melting point was 227 °C.

With `CN(Cc1ccc(NC(=O)/C=C/c2ccc(-c3ccc(C(C)(C)C)cc3)s2)cc1)C1CCOCC1`, the melting point was in the range of 216 to 220 °C. The value for `CN(C)C(=O)Nc1ccc(Oc2ccc3sncc3c2)cc1` was 156 °C; that for `Cc1c(Br)c2c(c3c1C(c1ccc(C(C)C)cc1)CO3)CCCC2` (stereo not drawn) was 108 to 109 °C.

In the case of `CC1(C)CC(O)CC(C)(C)N1OC1CCCCC1`, the melting point is 74 to 78 °C. `CCn1nnnc1Cc1ccc(N)cc1`: the melting point was 94 to 95 °C. For `CN(C)CCCOc1ccc(C(=O)NN)cc1` the value was 79.5 to 81 °C. For `O=c1c2ccc(Cl)cc2[nH]c2c(O)nn(Cc3ccsc3)c(=O)c12`, the melting point is over 250 °C. `O=C(N1CCCCC1)N1CC(Oc2cccc(C(F)(F)F)c2)C1` gave a melting point of 50 to 52 °C. In turn, `COC(=O)c1cc(Cl)c(Oc2ccc(OC)cc2)c(Cl)c1` showed a melting point of 82 to 85 °C. For `CN(C)c1ccc([N+](=O)[O-])cc1Cl` the value was 71 to 73 °C. For `CC(C)(C)OC(=O)N1C2CCC1CNC2` the value was 102 to 104 °C; for `Nc1nc(O)c2cc(CCc3ccc(C(=O)O)cc3)cnc2n1`, over 300 °C; for `CC(C)(C)C(=O)Oc1ccc(C(=O)c2ccc(OC(=O)C(C)(C)C)cc2OC(=O)C(C)(C)C)cc1`, 94 to 96 °C. In turn, `COCC1=C(C(=O)OC)C(c2ccc(Br)cc2)C(C(=O)OC)=C(COC)N1` displayed a melting point of 162 to 163 °C. As for `NCc1ccc(C(=O)CCCN2CCC(c3ccc(Cl)cc3)CC2)cc1`, the melting point fell in the range of 94 to 96 °C. Regarding `CCCC(=O)N[C@H]1CC[C@H](CCN2CCN(c3nccc4c3OCC4)CC2)CC1`, the melting point was found to be 183 °C. For `COc1ccc(N2CCOCC2)cc1NC(=O)c1ncc[nH]1` the value was 227 to 230 °C. For `CN(C)c1cc(N)c(C(=O)O)cc1[N+](=O)[O-]` the value was 240 to 250 °C; for `NS(=O)(=O)c1cc(S(=O)(=O)N(N2CCCCC2)N2CCCCC2)c(Cl)cc1Cl`, 170 °C. The value for `COC(=O)C(Cc1ccc(C#N)cc1)C(=O)c1ccc(C#N)cc1` (stereo not drawn) was 154 to 157 °C; that for `CC(COc1ccc(-n2cncn2)cc1)(NS(=O)(=O)Cc1ccccc1)C(=O)O` (stereo not drawn) was 148 to 151 °C.

As for `COc1ccc(-c2nc(SC(C)C)[nH]c2-c2ccncc2)cc1`, the melting point fell in the range of 206 to 210 °C.

Consider `CCN(CC)c1ccc(C=CC(=O)C=Cc2ccc(N(CC)CC)cc2)cc1`, for which the melting point came out at 168 °C.

Take `Cc1cccn2c(=O)cc(/C=C/c3ccccc3)nc12`: the melting point lay in the range of 150 to 152 °C. Compound `CCN(C(C)=O)c1cccc(C(=O)C=CN(C)C)c1` yielded a melting point of 110 to 113 °C. `O=S(=O)(CC(F)(F)F)N(Cc1cccnc1)c1cccc(Oc2ccccc2O)c1` registered a melting point of 57.5 to 60 °C. For `C#CCOC(=O)c1cccnc1C1=NC(C)(C(C)C)C(=O)N1` (stereo not drawn) the value was 188 to 190 °C.

The record behind these values is a melting point compilation (Tetko et al.; mined from patent text by program, amines drawn as free bases though some values may be those of a salt).
